In article PMC4067742, “Direct Observations of Amyloid β Self-Assembly in Live Cells Provide Insights into Differences in the Kinetics of Aβ(1–40) and Aβ(1–42) Aggregation” (Chemistry & Biology, 2014):
Values joined by “and” are separate entries in the source; they are usually repeats but may differ in a detail not shown here. Equal entries are not always repeated.

Legend:
SH-SY5Y cells = experiment: Live cell FLIM of intracellular aggregation; type: cell-based, human; conditions: 500 nM peptide in culture medium; for lag phase of intracellular aggregation: 0–48 hr, live cell FLIM (Figure 4D)
From the text: Having established that the fluorescence lifetime of HF488 acts as a reporter of amyloid formation of Aβ(1–40) and Aβ(1–42), we set out to investigate how the aggregation state of each of the two peptide isoforms is affected by its cellular uptake and accumulation in acidic organelles in SH-SY5Y cells. Using FLIM, we observed that there are no significant differences (p = 0.95, Table S1) in the fluorescence lifetimes of extracellular and internalized ^HF488Aβ(1–40) during the first 6 hr after application of 500 nM peptide to the culture medium (Figures 4A and 4D), indicating the presence of similar ^HF488Aβ(1–40) species within the cells as those applied to the extracellular environment. […] We then examined the cells treated with the same concentration of ^HF488Aβ(1–40) for 24 and 48 hr (Figures 4C and 4D), washing them prior to imaging to remove any extracellular fluorescence. […] The difference compared with the extracellular starting value, however, is statistically significant first after 48 hr (p = 0.0032, Table S1). […]
All FLIM experiments were carried out using HF488-labeled Aβ peptides, and images were recorded by time-correlated single photon counting (TCSPC) using a confocal microscopy platform built on an Olympus Fluoview FV300 confocal scan unit. […] The excitation beam was reflected onto the sample with a 20/80 broad bandwidth coated beam splitter so that 20% of the excitation light passed on to the sample and 80% of the fluorescence signal was reflected toward the confocal pinhole. The fluorescence light was passed through a 515-nm Semrock long-pass filter (Laser 2000) and passed onto a fast photomultiplier tube (PMC-100, Becker & Hickl). Lifetimes were recorded using TCSPC circuitry (SPC-830, Becker & Hickl). […] The instrument response was measured using reflected light from either a coverslip or a coated mirror. […]

[1] = test system: SH-SY5Y human neuroblastoma cells; experiment: Confocal microscopy of uptake and intracellular localization; type: cell-based; conditions: for intracellular HF488 fluorescence (uptake) after 30 min: 500 nM monomeric peptide in medium, colocalized with endocytosis marker FM 4–64; for intracellular HF488 fluorescence (uptake) after 30 min / intracellular localization after 24 hr: confocal fluorescence; for intracellular localization after 24 hr: 500 nM peptide 24 hr, then 1 hr with 100 nM LysoTracker red; for uptake at 4°C: 1 hr at 4°C (inhibits endocytosis) compared with 37°C, cells washed before confocal imaging
Description: Aβ peptides have been reported to be internalized into a variety of cell types, including neurons ([Burdick et al., 1997; Friedrich et al., 2010; Hu et al., 2009; Kaminski Schierle et al., 2011b; McGuire et al., 2012]). To characterize the uptake and intracellular localization of the peptides under the conditions used in our study, we added aliquots of monomeric ^HF488Aβ(1–40) or ^HF488Aβ(1–42) to cultures of SH-SY5Y human neuroblastoma cells to give a total peptide concentration of 500 nM in the cellular medium. […] The neuronal cells were also incubated for 1 hr at 37°C and at 4°C to compare uptake under conditions that, respectively, permit or inhibit endocytosis.
Human neuroblastoma cells (SH-SY5Y) were grown in 1:1 minimal essential medium (MEM) and nutrient mixture F-12 Ham (Sigma-Aldrich) with sodium bicarbonate, including 15% heat-inactivated fetal bovine serum, 1% MEM non-essential amino acids, 2 mM […], 1% penicillin-streptomycin (10,000 U/ml K1), and 0.1% fungizone (amphotericin B, […] K1) (Life Technologies). Cells were plated 1 day prior to experiments in glass-bottomed culture dishes (MatTek) at a density of 50,000 cells/14-mm dish. All samples were washed once in CO2-independent, serum- and phenol red-free medium (prepared as above but with exclusion of serum and addition of 30 mM HEPES and B12 supplement [Gibco]). All experiments with cells were performed in at least duplicates and repeated at least three times. The Aβ concentration was 500 nM in all experiments.
All uptake and colocalization experiments were carried out with the HF488-labeled Aβ peptides using a Leica SP5 confocal microscope (Leica Microsystems). For colocalization with FM 4–64 (Life Technologies), 5 μg/ml of the dye was added together with the peptide, and images were recorded after 1 hr of incubation. Both dyes were excited by the 488-nm laser line. HF488 emission was collected from 520–580 nm and FM 4–64 emission between 700–800 nm. For colocalization with LysoTracker red (Life Technologies), cells were incubated with HF488-labeled peptide for 24 hr, washed once with serum-free medium, and thereafter incubated for 1 hr with 100 nM LysoTracker red before images were recorded. LysoTracker red was excited using the […] laser line, and emission was collected between 700–800 nm. Sequential acquisition was used in all experiment to avoid bleed-through and cross-excitation. Cellular uptake at 4°C was assessed by keeping the cells in a cold room during incubation. The cells were washed prior to imaging to avoid uptake while observing the cells on the microscope.

With “^HF488Aβ(1–42): Synthetic 42-residue amyloid β peptide labeled at the N terminus with Hilyte Fluor 488, purchased from Anaspec” the “lag phase of intracellular aggregation” value (SH-SY5Y cells) was “shows no such effect”, the “intracellular HF488 fluorescence (uptake) after 30 min” value [1] was “observed readily” and the “intracellular localization after 24 hr” value [1] was “colocalize with LysoTracker red”. The “uptake at 4°C” value ([1]; 500 nM peptide) was “did not internalize any detectible quantities”.
For “^HF488Aβ(1–40): Synthetic 40-residue amyloid β peptide labeled at the N terminus with Hilyte Fluor 488, purchased from Anaspec”, the “lag phase of intracellular aggregation” value (SH-SY5Y cells) was “appears to exhibit a lag phase”, the “endpoint value of intracellular fluorescence lifetime” value (SH-SY5Y cells; endpoint (48h, p = 0.22 Table S2), cells washed once, live cell FLIM) was 3.35 ± 0.2 ns and 3.31 ± 0.2 ns and the “intracellular HF488 fluorescence (uptake) after 30 min” value [1] was “observed readily”. The “intracellular localization after 24 hr” value [1] was “colocalize with LysoTracker red”, the “cellular uptake after 10 minutes” value ([1]; 500 nM peptide, 10 minutes, confocal fluorescence with Z-scanning (Figure S3)) was “vesicular uptake” and the “uptake at 4°C” value ([1]; 500 nM peptide) was “did not internalize any detectible quantities”.
